Assay results from patent US7745428B2, “Imidazo[1,2-A]pyridine having anti-cell-proliferation activity” (AstraZeneca AB, priority 2005, dated 2010).

Biological target: T1, CDK2/Cyclin E (Homo sapiens, UniProt P24941)
T1 construct: The open reading frames of CDK2 and Cyclin E were isolated; made in house; host or cells: Sf21 (Spodoptera frugiperda) insect cells, baculovirus co-infection; substrate in E. coli BL21 (DE3) pLysS
Assay: in vitro kinase assay (Scintillation Proximity Assay), CDK2/Cyclin E, GST-Rb substrate
Format: biochemical
Conditions: in-vitro SPA kinase assay, 0.2 μM ATP, room temperature, 60 minutes; read-out: CDK2 inhibitory activity (CDK2 enzyme)
Procedure: The compounds were tested in an in vitro kinase assay in 96 well format using Scintillation Proximity Assay (SPA—obtained from Amersham) for measuring incorporation of [γ-33-P]-Adenosine Triphosphate into a test substrate (GST-Retinoblastoma protein; GST-Rb). In each well was placed the compound to be tested (diluted in DMSO and water to correct concentrations) and in control wells either roscovitine as an inhibitor control or DMSO as a […] control.
Approximately 0.2 μl of CDK2/Cyclin E partially-purified enzyme (amount dependent on enzyme activity) diluted in 25 μl incubation buffer was added to each well then 20 μl of GST-Rb/ATP/ATP33 mixture (containing 0.5 μg GST-Rb and 0.2 μM ATP and 0.14 μCi[γ-33-P]-Adenosine Triphosphate in incubation buffer), and the resulting mixture shaken gently, then incubated at room temperature for 60 minutes. […]
The plates were sealed with Topseal-S plate sealers, left for two hours then spun at 2500 rpm, 1124×g., for 5 minutes. The plates were read on a Topcount for 30 seconds per well. […]
The open reading frames of CDK2 and Cyclin E were isolated by reverse transcriptase-PCR using HeLa cell and activated T cell mRNA as a template and cloned into the insect expression vector pVL1393 (obtained from Invitrogen 1995 catalogue number: V1392-20). […]

IC50: 90 nM
SMILES: CN1CCN(C(=O)c2ccc(Nc3nccc(-c4cnc5ccccn45)n3)cc2)CC1 [Example 2, [4-(4-Imidazo[1,2-a]pyridin-3-yl-pyrimidin-2-ylamino)-phenyl]-(4-methyl-piperazin-1-yl)-methanone]
